Reference: patent US20130165368A1, “ANTIMICROBIAL COMPOUNDS” (priority 2010, published 2013)
≈ marks a conversion by molar mass, not a printed value. Like-named read-outs stand apart in the source and are kept apart here.

Assays:
Format in all cases: cell-based
Candida albicans = assay: MIC agar dilution, micro-organism 19 (90028); settings: Candida albicans 90028
Experimental: (§1) Throughout the period of testing the microbial strains were subcultured and incubated for 18-20 hours at 37° C. on a weekly basis. Horse blood agar plates were used to sustain the micro-organisms both prior to and throughout testing. The alkoxylated alkanols listed in Table II below were obtained (these are obtainable from Sigma-Aldrich Company Ltd, Dorset, England), each having a GC purity of at least 97%.
(§2) Molar equivalent concentrations were used to allow comparison between compounds of differing molecular mass. Due to weighing difficulties, any compound in solid form was melted in a water bath prior to dilution. To make ten-times strength concentrations, which takes into account agar dilution, 0.0352 mmol of each compound was weighed into plastic universal bottles and 4 mL of sterile distilled water (SDW) was added. To produce a homogenous emulsion the universals were vortexed; once achieved the emulsions were serial diluted by adding 2 mL to 2 mL of SDW.
(§3) Myristyl alcohol and lauryl alcohol were re-weighed and dissolved in 25 μL of the polar solvent 1-methyl-2-pyrrolidone (M6762; Sigma-Aldrich) in sterile glass universals due to an inability to achieve an even suspension. To maintain an even emulsion in the presence of SDW 37.5 μL of the non-ionic detergent Tween 20 (P1379, Sigma-Aldrich) was also added. 3.9375 mL of SDW was added to these, to create a 4 mL volume; they were vortexed and diluted as before.
(§4) For every 100 mL of Isosensitest agar (IST) (CM0471; Oxoid, Basingstoke, England), 3.1 g of the IST powder was added to 100 mL SDW (as per manufacturer's instructions) and sterilised for 15 minutes at 121° C. Once sterilised, the molten agar was cooled to 50° C. in a water-bath. Subsequently 4.8 g of CCEY powder (BC2160; Bioconnections, Wetherby, England), also known as Brazier's medium, was added to 100 mL SDW for every 100 mL of agar needed. This was then sterilised for 15 minutes at 121° C. Once sterilised the molten agar was cooled to 50° C. in a water-bath and 4 mL of egg-yolk emulsion (S2073; TCS Biosciences Ltd, Buckingham, United Kingdom) and 1 mL of lysed defibrinated horse blood (HB035; TCS Biosciences Ltd, Buckingham, United Kingdom) were also added for every 100 mL needed. Horse blood lysis is achieved by dilution to half concentration with SDW; when fully lysed the mixture will turn dark red in colour.
(§5) 18 mL agar was added to each universal and then poured into sterile Petri dishes. This step creates a 1/10 dilution resulting in agar plates of the required strength. Control plates for each set of strains were created by adding 18 mL of agar to 2 mL of SDW.
(§6) Suspensions of each bacterial species were prepared with a density equal to that of a 0.5 McFarland standard using a densitometer. All suspensions were made using sterile distilled water and fresh 18-20 hour cultures. As a 0.5 McFarland standard contains 1.5×10^8 CFU/mL and the multipoint inoculators applies 1 μL spots of liquid, each bacterial suspension was diluted 1/15 (20 μL suspension to 280 μL sterile distilled water).
(§7) Bacterial suspensions were prepared from fresh 18-24 hour cultures as previously described. 1 μL of each strain was inoculated onto all 100 agar plates containing a different chemical concentration and the 2 control plates. This was done using a multipoint inoculator which inoculates 20 strains per plate. All plates were incubated for 22 hours at 37° C. in aerobic conditions.
(§8) Each plate was examined for bacterial growth after 22 and 48 hours, with each being incubated in between examinations. A positive result was recorded as growth of ≧10 colonies. A negative result was recorded as growth of <10 colonies as this is equivalent to 99.9% inhibition. The lowest concentration of chemical that inhibited growth was recorded as the MIC. The results are recorded in Table IV below, where the numbers are quoted in mmol/L. […]

Candida glabrata = assay: MIC agar dilution, micro-organism 20 (3943); settings: Candida glabrata 3943
Experimental: as §1, §2, §3, §4, §5, §6, §7, §8

[1] = system: Staphylococcus aureus (MRSA); assay: MIC agar dilution, micro-organism 12 (11939); settings: Staphylococcus aureus (MRSA) 11939
Experimental: as §1, §2, §3, §4, §5, §6, §7, §8

Escherichia coli = assay: MIC agar dilution, micro-organism 1 (10418); settings: Escherichia coli 10418
Experimental: as §1, §2, §3, §4, §5, §6, §7, §8

[2] = system: Staphylococcus epidermidis; assay: MIC agar dilution, micro-organism 14 (11047); settings: Staphylococcus epidermidis 11047
Experimental: as §1, §2, §3, §4, §5, §6, §7, §8

Serratia marcescens = assay: MIC agar dilution, micro-organism 5 (10211); settings: Serratia marcescens 10211
Experimental: as §1, §2, §3, §4, §5, §6, §7
(§9) Each plate was examined for bacterial growth after 22 and 48 hours, with each being incubated in between examinations. A positive result was recorded as growth of ≧10 colonies. A negative result was recorded as growth of <10 colonies as this is equivalent to 99.9% inhibition. The lowest concentration of chemical that inhibited growth was recorded as the MIC. The results are recorded in Table IV below, where the numbers are quoted in mmol/L.
(§10) Further experiments have also been conducted to determine the MIC of a number of other compositions as follows. […]

Providencia rettgeri = assay: MIC agar dilution, micro-organism 3 (7475); settings: Providencia rettgeri 7475
Experimental: as §1, §2, §3, §4, §5, §6, §7, §8

Enterobacter cloacae = assay: MIC agar dilution, micro-organism 4 (11936); settings: Enterobacter cloacae 11936
Experimental: as §1, §2, §3, §4, §5, §6, §7, §9, §10

Yersinia enterocolitica = assay: MIC agar dilution, micro-organism 8 (11176); settings: Yersinia enterocolitica 11176
Experimental: as §1, §2, §3, §4, §5, §6, §7, §9, §10

Listeria monocytogenes = assay: MIC agar dilution, micro-organism 15 (11994); settings: Listeria monocytogenes 11994
Experimental: as §1, §2, §3, §4, §5, §6, §7, §8

Staphylococcus aureus = assay: MIC agar dilution, micro-organism 13 (6571); settings: Staphylococcus aureus 6571
Experimental: as §1, §2, §3, §4, §5, §6, §7, §8

Pseudomonas aeruginosa = assay: MIC agar dilution, micro-organism 7 (10662); settings: Pseudomonas aeruginosa 10662
Experimental: as §1, §2, §3, §4, §5, §6, §7, §9, §10

Burkholderia cepacia = assay: MIC agar dilution, micro-organism 9 (1222); settings: Burkholderia cepacia 1222
Experimental: as §1, §2, §3, §4, §5, §6, §7, §9, §10

Steptococcus pyogenes = assay: MIC agar dilution, micro-organism 11 (8306); settings: Steptococcus pyogenes 8306
Experimental: as §1, §2, §3, §4, §5, §6, §7, §8

Enterococcus faecalis = assay: MIC agar dilution, micro-organism 17 (775); settings: Enterococcus faecalis 775
Experimental: as §1, §2, §3, §4, §5, §6, §7, §8

Enterococcus faecium = assay: MIC agar dilution, micro-organism 16 (7171); settings: Enterococcus faecium 7171
Experimental: as §1, §2, §3, §4, §5, §6, §7, §8

Salmonella typhimurium = assay: MIC agar dilution, micro-organism 6 (74); settings: Salmonella typhimurium 74
Experimental: as §1, §2, §3, §4, §5, §6, §7, §9, §10

Klebsiella pneumoniae = assay: MIC agar dilution, micro-organism 2 (9528); settings: Klebsiella pneumoniae 9528
Experimental: as §1, §2, §3, §4, §5, §6, §7, §9, §10

Acinetobacter baumannii = assay: MIC agar dilution, micro-organism 10 (19606); settings: Acinetobacter baumannii 19606
Experimental: as §1, §2, §3, §4, §5, §6, §7, §9, §10

Bacillus subtilis = assay: MIC agar dilution, micro-organism 18 (9372); settings: Bacillus subtilis 9372
Experimental: as §1, §2, §3, §4, §5, §6, §7, §8

[3] = Nakaseomyces glabratus, 48 h, 48 hrs, read-out: MIC
[4] = Staphylococcus aureus, MRSA, 48 h, 48 hrs, read-out: MIC
[5] = Staphylococcus aureus, 48 h, 48 hrs, read-out: MIC
[6] = Salmonella enterica, 48 hrs, read-out: MIC

CCCCCCCCCCCCOCC(C)O (racemic) [PG1, 1-methyl-3-oxapentadecanol]
MIC (Candida albicans; 48 hrs, read-out: MIC): > 880 µM | MIC (Candida glabrata; [3]): > 880 µM | MIC [1, 4]: 880 µM (≈ 215 µg/mL) | MIC (Escherichia coli; 48 hrs, read-out: MIC): > 880 µM | MIC ([2]; 48 hrs, read-out: MIC): > 880 µM | MIC (Serratia marcescens; 48 hrs, read-out: MIC): > 880 µM | MIC (Providencia rettgeri; 48 hrs, read-out: MIC): 880 µM (≈ 215 µg/mL) | MIC (Enterobacter cloacae; 48 hrs, read-out: MIC): > 880 µM | MIC (Yersinia enterocolitica; 48 hrs, read-out: MIC): > 880 µM | MIC (Listeria monocytogenes; 48 hrs, read-out: MIC): > 880 µM | MIC (Staphylococcus aureus; [5]): > 880 µM | MIC (Pseudomonas aeruginosa; 48 hrs, read-out: MIC): > 880 µM | MIC (Burkholderia cepacia; 48 hrs, read-out: MIC): > 880 µM | MIC (Steptococcus pyogenes; 48 h, 48 hrs, read-out: MIC): > 880 µM | MIC (Enterococcus faecalis; 48 hrs, read-out: MIC): > 880 µM | MIC (Enterococcus faecium; 48 hrs, read-out: MIC): > 880 µM | MIC (Salmonella typhimurium; [6]): > 880 µM | MIC (Klebsiella pneumoniae; 48 hrs, read-out: MIC): > 880 µM | MIC (Acinetobacter baumannii; 48 hrs, read-out: MIC): > 880 µM | MIC (Bacillus subtilis; 48 hrs, read-out: MIC): > 880 µM

CCCCCCCCCCCCCCCCOCCO [C16E1, ceteth-1]
MIC (Candida albicans; 22 hrs): >880 µM | MIC (Candida albicans; 48 hrs): >880 µM | MIC (Candida glabrata; 22 hrs): 880 µM (≈ 252 µg/mL) | MIC (Candida glabrata; 48 hrs): 880 µM (≈ 252 µg/mL) | MIC ([1]; 22 hrs): >880 µM | MIC ([1]; 48 hrs): >880 µM | MIC (Escherichia coli; 22 hrs): >880 µM | MIC (Escherichia coli; 48 hrs): >880 µM | MIC ([2]; 22 hrs): >880 µM | MIC ([2]; 48 hrs): >880 µM | MIC (Serratia marcescens; 22 hrs): >880 µM | MIC (Serratia marcescens; 48 hrs): >880 µM | MIC (Providencia rettgeri; 22 hrs): >880 µM | MIC (Providencia rettgeri; 48 hrs): >880 µM | MIC (Enterobacter cloacae; 22 hrs): >880 µM | MIC (Enterobacter cloacae; 48 hrs): >880 µM | MIC (Yersinia enterocolitica; 22 hrs): >880 µM | MIC (Yersinia enterocolitica; 48 hrs): >880 µM | MIC (Listeria monocytogenes; 22 hrs): >880 µM | MIC (Listeria monocytogenes; 48 hrs): >880 µM | MIC (Staphylococcus aureus; 22 hrs): >880 µM | MIC (Staphylococcus aureus; 48 hrs): >880 µM | MIC (Pseudomonas aeruginosa; 22 hrs): >880 µM | MIC (Pseudomonas aeruginosa; 48 hrs): >880 µM | MIC (Burkholderia cepacia; 22 hrs): >880 µM | MIC (Burkholderia cepacia; 48 hrs): >880 µM | MIC (Steptococcus pyogenes; 22 hrs): >880 µM | MIC (Steptococcus pyogenes; 48 hrs): >880 µM | MIC (Enterococcus faecalis; 22 hrs): >880 µM | MIC (Enterococcus faecalis; 48 hrs): >880 µM | MIC (Enterococcus faecium; 22 hrs): >880 µM | MIC (Enterococcus faecium; 48 hrs): >880 µM | MIC (Salmonella typhimurium; 22 hrs): >880 µM | MIC (Salmonella typhimurium; 48 hrs): >880 µM | MIC (Klebsiella pneumoniae; 22 hrs): >880 µM | MIC (Klebsiella pneumoniae; 48 hrs): >880 µM | MIC (Acinetobacter baumannii; 22 hrs): >880 µM | MIC (Acinetobacter baumannii; 48 hrs): >880 µM | MIC (Bacillus subtilis; 22 hrs): >880 µM | MIC (Bacillus subtilis; 48 hrs): >880 µM

OCCOCCOCCCCCCCCCCCCOCCOCCO [DEG2, 3,6,19,22-tetraoxatetracosane-1,24-diol]
MIC (Candida albicans; 48 hrs, read-out: MIC): > 880 µM | MIC (Candida glabrata; [3]): > 880 µM | MIC [1, 4]: > 880 µM | MIC (Escherichia coli; 48 hrs, read-out: MIC): > 880 µM | MIC ([2]; 48 hrs, read-out: MIC): > 880 µM | MIC (Serratia marcescens; 48 hrs, read-out: MIC): > 880 µM | MIC (Providencia rettgeri; 48 hrs, read-out: MIC): > 880 µM | MIC (Enterobacter cloacae; 48 hrs, read-out: MIC): > 880 µM | MIC (Yersinia enterocolitica; 48 hrs, read-out: MIC): > 880 µM | MIC (Listeria monocytogenes; 48 hrs, read-out: MIC): > 880 µM | MIC (Staphylococcus aureus; [5]): > 880 µM | MIC (Pseudomonas aeruginosa; 48 hrs, read-out: MIC): > 880 µM | MIC (Burkholderia cepacia; 48 hrs, read-out: MIC): > 880 µM | MIC (Steptococcus pyogenes; 48 h, 48 hrs, read-out: MIC): 880 µM (≈ 333 µg/mL) | MIC (Enterococcus faecalis; 48 hrs, read-out: MIC): > 880 µM | MIC (Enterococcus faecium; 48 hrs, read-out: MIC): > 880 µM | MIC (Salmonella typhimurium; [6]): > 880 µM | MIC (Klebsiella pneumoniae; 48 hrs, read-out: MIC): 880 µM (≈ 333 µg/mL) | MIC (Acinetobacter baumannii; 48 hrs, read-out: MIC): > 880 µM | MIC (Bacillus subtilis; 48 hrs, read-out: MIC): > 880 µM
